The assay has as its target T1, IRAK3 (Homo sapiens, UniProt Q9Y616).
T1 sequence (Q9Y616 1-596): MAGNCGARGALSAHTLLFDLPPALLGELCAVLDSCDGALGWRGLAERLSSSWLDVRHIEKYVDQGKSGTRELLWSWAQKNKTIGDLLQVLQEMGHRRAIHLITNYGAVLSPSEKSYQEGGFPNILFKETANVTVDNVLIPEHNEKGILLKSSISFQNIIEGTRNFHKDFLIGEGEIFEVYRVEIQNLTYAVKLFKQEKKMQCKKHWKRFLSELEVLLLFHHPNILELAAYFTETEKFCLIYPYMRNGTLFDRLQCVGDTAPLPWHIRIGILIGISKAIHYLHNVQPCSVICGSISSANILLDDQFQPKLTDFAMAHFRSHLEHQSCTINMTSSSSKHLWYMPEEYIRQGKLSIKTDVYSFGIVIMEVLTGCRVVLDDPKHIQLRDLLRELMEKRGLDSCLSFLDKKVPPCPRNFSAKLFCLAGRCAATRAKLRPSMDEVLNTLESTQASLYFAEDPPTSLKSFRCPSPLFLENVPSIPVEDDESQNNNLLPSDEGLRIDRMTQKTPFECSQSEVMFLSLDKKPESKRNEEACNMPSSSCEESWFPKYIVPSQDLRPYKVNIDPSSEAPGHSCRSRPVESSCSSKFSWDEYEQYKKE
Briefly: IRAK endogenous HTRF degradation assay (Total-IRAK3 HTRF kit). In kind it is cell-based. More on the design: IRAK Endogenous HTRF Degradation Assay; endogenous in cells. To be noted: endogenous IRAK3, overnight incubation; % Dmax = 100 − Ymin. On the procedure:
Example B2. IRAK Endogenous HTRF Degradation Assay
Cells (~50k) were plated in Cisbio 96-well low volume white plates (Cisbio: cat #66PL96005). Compounds were dissolved in DMSO and a 3-fold serial dilution was performed using a TECAN D300E. Cells were incubated with the compound overnight. Total-IRAK3 HTRF kit from Cisbio was used for degradation analysis (Cisbio: 63ADK101PEH). Cryptate and D2 antibodies were diluted in Detection buffer as per manufacturers recommendation. Then 2 μL of each solution was added to 16 μL lysate. Buffer control (lysis buffer detection buffer), Cryptate control (lysis buffer+cryptate antibody+detection buffer), and Negative control (lysis buffer+cryptate antibody+D2 antibody) were made as per manufacturers recommendation. Post incubation with antibodies the HTRF signal was measured using a Perkin Elmer Envision reader and the HTRF signal was calculated using formula: (Emission at 665 nm/Emission at 615 nm)*10,000. All HTRF values were normalized to the average value of DMSO. The average value of the DMSO control wells were set to equal 100% of the relative IRAK3 protein levels. Normalized luminescence values were plotted on a graph as a function of compound concentration. Compound concentration was plotted on the x-axis and the corresponding normalized IRAK3 protein levels on the y-axis. The EC50 value (the half-maximum effective concentration) of a compound for the degradation of the IRAK3 was calculated using a four-parameter logistic model (sigmoidal dose-response model) (FIT=(A+{(B−A)/1+[(C/x)D]})) where C is the inflection point (EC50), D is the […], and A and B are the low and high limits of the fit, respectively). The Ymin was calculated by determining the lowest percentage of target protein remaining following compound treatment. Dmax was calculated from Ymin (% Dmax=100−Ymin).
Using these assays, IC50, Dmax, EC50, and DC50 values of the following compounds were determined. Dmax is defined as the maximum percent degradation achieved and DC50 is the concentration at which 50% degradation is achieved.

This passage reports Dmax results from patent publication US20260234124A1, “Substituted Pyrazolyl-Pyridinyl Compounds as Ligand Directed Degraders of IRAK3” (Celgene Corporation, priority 2022, published 2026).

In the case of `C[C@@H](Oc1cc(-c2cnn(C3CCN(CCOCCOCCOCCNC(=O)COc4cccc5c4C(=O)N(C4CCC(=O)NC4=O)C5=O)CC3)c2)cnc1N)c1c(Cl)ccc(F)c1Cl` (stereo partly drawn) [Compound 11, N-(2-(2-(2-(2-(4-(4-(6-amino-5-((R)-1-(2,6-dichloro-3-fluorophenyl)ethoxy)pyridin-3-yl)-1H-pyrazol-1-yl)piperidin-1-yl)ethoxy)ethoxy)ethoxy)ethyl)-2-((2-(2,6-dioxopiperidin-3-yl)-1,3-dioxoisoindolin-4-yl)oxy)acetamide], the Dmax (commonly the greatest extent of degradation seen) was found to be 38%.

Take `C[C@@H](Oc1cc(-c2cnn(C3CCN(CCOCCOCCOCCOCCNC(=O)COc4cccc5c4C(=O)N(C4CCC(=O)NC4=O)C5=O)CC3)c2)cnc1N)c1c(Cl)ccc(F)c1Cl` (stereo partly drawn) [Compound 12, N-(14-(4-(4-(6-amino-5-((R)-1-(2,6-dichloro-3-fluorophenyl)ethoxy)pyridin-3-yl)-1H-pyrazol-1-yl)piperidin-1-yl)-3,6,9,12-tetraoxatetradecyl)-2-((2-(2,6-dioxopiperidin-3-yl)-1,3-dioxoisoindolin-4-yl)oxy)acetamide]: the Dmax came out at 33%. `C[C@@H](Oc1cc(-c2cnn(C3CCN(C4CCC5(CC4)CCN(C(=O)c4ccc6c(c4)C(=O)N(C4CCC(=O)NC4=O)C6)CC5)CC3)c2)cnc1N)c1c(Cl)ccc(F)c1Cl` (stereo partly drawn) [Compound 19, 3-(6-(9-(4-(4-(6-amino-5-((R)-1-(2,6-dichloro-3-fluorophenyl)ethoxy)pyridin-3-yl)-1H-pyrazol-1-yl)piperidin-1-yl)-3-azaspiro[5.5]undecane-3-carbonyl)-1-oxoisoindolin-2-yl)piperidine-2,6-dione] displayed a Dmax of 42%. `Cc1ncsc1-c1ccc(CNC(=O)[C@@H]2C[C@@H](O)CN2C(=O)[C@@H](NC(=O)CCCN2CCC(n3cc(-c4cnc(N)c(O[C@H](C)c5c(Cl)ccc(F)c5Cl)c4)cn3)CC2)C(C)(C)C)cc1` [Compound 1, (2S,4R)-1-((S)-2-(4-(4-(4-(6-amino-5-((R)-1-(2,6-dichloro-3-fluorophenyl)ethoxy)pyridin-3-yl)-1H-pyrazol-1-yl)piperidin-1-yl)butanamido)-3,3-dimethylbutanoyl)-4-hydroxy-N-(4-(4-methylthiazol-5-yl)benzyl)pyrrolidine-2-carboxamide] had a Dmax of 41%. `C[C@@H](Oc1cc(-c2cnn(C3CCN(C4CCC5(CC4)CCN(C(=O)c4ccc6c(c4)CN(C4CCC(=O)NC4=O)C6=O)CC5)CC3)c2)cnc1N)c1c(Cl)ccc(F)c1Cl` (stereo partly drawn) [Compound 20, 3-(5-(9-(4-(4-(6-amino-5-((R)-1-(2,6-dichloro-3-fluorophenyl)ethoxy)pyridin-3-yl)-1H-pyrazol-1-yl)piperidin-1-yl)-3-azaspiro[5.5]undecane-3-carbonyl)-1-oxoisoindolin-2-yl)piperidine-2,6-dione] had a Dmax of 73%.

As to `Cc1ncsc1-c1ccc(CNC(=O)[C@@H]2C[C@@H](O)CN2C(=O)[C@@H](NC(=O)COCCOCCOCCOCCOCCOCCN2CCC(n3cc(-c4cnc(N)c(O[C@H](C)c5c(Cl)ccc(F)c5Cl)c4)cn3)CC2)C(C)(C)C)cc1` [Compound 6, (2S,4R)-1-((S)-23-(4-(4-(6-amino-5-((R)-1-(2,6-dichloro-3-fluorophenyl)ethoxy)pyridin-3-yl)-1H-pyrazol-1-yl)piperidin-1-yl)-2-(tert-butyl)-4-oxo-6,9,12,15,18,21-hexaoxa-3-azatricosanoyl)-4-hydroxy-N-(4-(4-methylthiazol-5-yl)benzyl)pyrrolidine-2-carboxamide], the Dmax came out at 56%. For the compound `Cc1ncsc1-c1ccc(CNC(=O)[C@@H]2C[C@@H](O)CN2C(=O)[C@@H](NC(=O)COCCOCCOCCN2CCC(n3cc(-c4cnc(N)c(O[C@H](C)c5c(Cl)ccc(F)c5Cl)c4)cn3)CC2)C(C)(C)C)cc1` [Compound 3, (2S,4R)-1-((S)-14-(4-(4-(6-amino-5-((R)-1-(2,6-dichloro-3-fluorophenyl)ethoxy)pyridin-3-yl)-1H-pyrazol-1-yl)piperidin-1-yl)-2-(tert-butyl)-4-oxo-6,9,12-trioxa-3-azatetradecanoyl)-4-hydroxy-N-(4-(4-methylthiazol-5-yl)benzyl)pyrrolidine-2-carboxamide], the maximal degradation (Dmax) came out at 42%. In turn, `C[C@@H](Oc1cc(-c2cnn(C3CCN(CCOCCOCCOCCNC(=O)COc4ccc5c(c4)C(=O)N(C4CCC(=O)NC4=O)C5=O)CC3)c2)cnc1N)c1c(Cl)ccc(F)c1Cl` (stereo partly drawn) [Compound 16, N-(2-(2-(2-(2-(4-(4-(6-amino-5-((R)-1-(2,6-dichloro-3-fluorophenyl)ethoxy)pyridin-3-yl)-1H-pyrazol-1-yl)piperidin-1-yl)ethoxy)ethoxy)ethoxy)ethyl)-2-((2-(2,6-dioxopiperidin-3-yl)-1,3-dioxoisoindolin-5-yl)oxy)acetamide] displayed a Dmax of 25%. In the case of `C[C@@H](Oc1cc(-c2cnn(C3CCN(CCNC(=O)COc4ccc5c(c4)C(=O)N(C4CCC(=O)NC4=O)C5=O)CC3)c2)cnc1N)c1c(Cl)ccc(F)c1Cl` (stereo partly drawn) [Compound 13, N-(2-(4-(4-(6-amino-5-((R)-1-(2,6-dichloro-3-fluorophenyl)ethoxy)pyridin-3-yl)-1H-pyrazol-1-yl)piperidin-1-yl)ethyl)-2-((2-(2,6-dioxopiperidin-3-yl)-1,3-dioxoisoindolin-5-yl)oxy)acetamide], the Dmax stood at 65%. The figure for `C[C@@H](Oc1cc(-c2cnn(C3CCN(CCOCCNC(=O)COc4cccc5c4C(=O)N(C4CCC(=O)NC4=O)C5=O)CC3)c2)cnc1N)c1c(Cl)ccc(F)c1Cl` (stereo partly drawn) [Compound 9, N-(2-(2-(4-(4-(6-amino-5-((R)-1-(2,6-dichloro-3-fluorophenyl)ethoxy)pyridin-3-yl)-1H-pyrazol-1-yl)piperidin-1-yl)ethoxy)ethyl)-2-((2-(2,6-dioxopiperidin-3-yl)-1,3-dioxoisoindolin-4-yl)oxy)acetamide] is 23%; for `Cc1ncsc1-c1ccc(CNC(=O)[C@@H]2C[C@@H](O)CN2C(=O)[C@@H](NC(=O)COCCOCCOCCOCCOCCOCCOCCN2CCC(n3cc(-c4cnc(N)c(O[C@H](C)c5c(Cl)ccc(F)c5Cl)c4)cn3)CC2)C(C)(C)C)cc1` [Compound 7, (2S,4R)-1-((S)-26-(4-(4-(6-amino-5-((R)-1-(2,6-dichloro-3-fluorophenyl)ethoxy)pyridin-3-yl)-1H-pyrazol-1-yl)piperidin-1-yl)-2-(tert-butyl)-4-oxo-6,9,12,15,18,21,24-heptaoxa-3-azahexacosanoyl)-4-hydroxy-N-(4-(4-methylthiazol-5-yl)benzyl)pyrrolidine-2-carboxamide] it is 50%. In turn, `C[C@@H](Oc1cc(-c2cnn(C3CCN(CCOCCNC(=O)COc4ccc5c(c4)C(=O)N(C4CCC(=O)NC4=O)C5=O)CC3)c2)cnc1N)c1c(Cl)ccc(F)c1Cl` (stereo partly drawn) [Compound 14, N-(2-(2-(4-(4-(6-amino-5-((R)-1-(2,6-dichloro-3-fluorophenyl)ethoxy)pyridin-3-yl)-1H-pyrazol-1-yl)piperidin-1-yl)ethoxy)ethyl)-2-((2-(2,6-dioxopiperidin-3-yl)-1,3-dioxoisoindolin-5-yl)oxy)acetamide] yielded a Dmax of 3%. `C[C@@H](Oc1cc(-c2cnn(C3CCN(CCNC(=O)COc4cccc5c4C(=O)N(C4CCC(=O)NC4=O)C5=O)CC3)c2)cnc1N)c1c(Cl)ccc(F)c1Cl` (stereo partly drawn) [Compound 8, N-(2-(4-(4-(6-amino-5-((R)-1-(2,6-dichloro-3-fluorophenyl)ethoxy)pyridin-3-yl)-1H-pyrazol-1-yl)piperidin-1-yl)ethyl)-2-((2-(2,6-dioxopiperidin-3-yl)-1,3-dioxoisoindolin-4-yl)oxy)acetamide]: the Dmax came to 37%. Take `C[C@@H](Oc1cc(-c2cnn(C3CCN(C4CCC5(CC4)CCN(C(=O)c4cccc(NC6CCC(=O)NC6=O)c4)CC5)CC3)c2)cnc1N)c1c(Cl)ccc(F)c1Cl` (stereo partly drawn) [Compound 22, 3-((3-(9-(4-(4-(6-Amino-5-((R)-1-(2,6-dichloro-3-fluorophenyl)ethoxy)pyridin-3-yl)-1H-pyrazol-1-yl)piperidin-1-yl)-3-azaspiro[5.5]undecane-3-carbonyl)phenyl)amino)piperidine-2,6-dione]: the Dmax worked out at 81%.
